For two compounds, logD results are on record in ChEMBL document CHEMBL1127345, “Synthesis, binding properties, and 18F labeling of fluorocarazolol, a high-affinity beta-adrenergic receptor antagonist” (J Med Chem, 1994).

As usually defined, the logD is lipophilicity at a set pH, counting ionised and neutral species.

What all share (format): physicochemical
The nature of data set [1]: The octanol-water partition coefficient at pH 3.3.
Data set [2] is described as follows: The octanol-water partition coefficient at pH 7.0.
Data set [3] in a line: The octanol-water partition coefficient at pH 7.5.
A short description of data set [4]: The octanol-water partition coefficient at pH 4.5.
The nature of data set [5]: The octanol-water partition coefficient at pH 5.8.
Data set [6] can be described thus: The octanol-water partition coefficient at pH 10.8.
The nature of data set [7]: The octanol-water partition coefficient at pH 9.4.
Data set [8] in a line: The octanol-water partition coefficient at pH 10.0.
Data set [9] in a line: The octanol-water partition coefficient at pH 8.3.
Data set [10] can be described thus: The octanol-water partition coefficient at pH 6.4.

`CC(C)NCC(O)COc1cccc2[nH]c3ccccc3c12` (stereo not given) [CARAZOLOL]: the logD in [1] is 0.17; in data set [2], 1.07; in data set [3], 1.51; in data set [4], 0.3; in data set [5], 0.42; in data set [6] it was 2.43. In addition, the pH-dependent lipophilicity (logD) amounted to 2.44 in [7], 2.5 in data set [8], 2.13 in data set [9] and 0.68 in data set [10].
With `CC(CF)NCC(O)COc1cccc2[nH]c3ccccc3c12` (stereo not given) [FLUOROCARAZOLOL], the logD in data set [1] stood at 0.03; in data set [2], 2.2; in [3], 2.48; in [4] it was 0.38; in [5], 1.11; in data set [6] it was 2.81. Moreover, the logD was 2.8 in data set [7], 2.81 in [8], 2.7 in data set [9] and 1.76 in data set [10].
